The results in this text go back to patent publication US7985410B2, “Method or agent for inhibiting the function of efflux pump Pseudomonas aeruginosa” (Tokai University, priority 2006, dated 2011).

≈ marks a conversion by molar mass, not a printed value. Read-outs that look alike come from different tables or passages of the source.

What all share (type): cell-based
Assay [1] has as its system Pseudomonas aeruginosa lacking OprM, plasmid with OprM (wild type). In words: Drug sensitivity (MIC), OprM (wild type). The protocol: (§1) Mutant protein was prepared in which 20 amino acid residues were replaced by cysteine residues, respectively, in E1 and E2 domains of the amino acid sequence of mature OprM protein as above. First, OprM gene was introduced into pUCP20 as a vector. This vector is a shuttle vector which works in Escherichia coli and Pseudomonas aeruginosa. Specific mutation was introduced to OprM gene by using regular mutation introducing kit, and resultant vector was transformed into E. coli. The resultant E. coli was cultured to prepare plasmid, and the sequence of the plasmid was determined to confirm that the mutation was successfully introduced.
(§2) Next, the plasmid was introduced into the Pseudomonas aeruginosa lacking OprM, and the drug sensitivity of the resultant bacteria was determined to evaluate the pump function thereof. Drug sensitivity might be enhanced if the function of the pump was inhibited. Drug sensitivity was indicated by minimum inhibitory concentration (MIC). Aztreonam (AZT) (β-1 lactam antibiotic) and nalidixic acid (NA) (qunolone antibiotic) were used as drugs.

For assay [2], the system named is Pseudomonas aeruginosa lacking OprM, plasmid with OprM (S314C). In words: Drug sensitivity (MIC), OprM (S314C). As for the experimental part:
as §1, §2

Assay [3] concerns Pseudomonas aeruginosa lacking OprM, plasmid with OprM (D318C). As to the kind of experiment: Drug sensitivity (MIC), OprM (D318C). The settings on record: for resistance of the bacteria to the drug (in words): OprM (D318C) mutant vs wild type; for MIC: Pseudomonas aeruginosa, OprM (D318C). As for the experimental part:
as §1, §2

In assay [4] the test system is Pseudomonas aeruginosa lacking OprM, plasmid with OprM (F317C). In words: Drug sensitivity (MIC), OprM (F317C). The protocol:
as §1, §2

Assay [5] deals with Pseudomonas aeruginosa lacking OprM, plasmid with OprM (T106C). As to the kind of experiment: Drug sensitivity (MIC), OprM (T106C). The protocol:
as §1, §2

Assay [6] relates to Pseudomonas aeruginosa lacking OprM, plasmid with OprM (L103C). In words: Drug sensitivity (MIC), OprM (L103C). As for the experimental part: as §1, §2
The subject of assay [7] is Pseudomonas aeruginosa lacking OprM, plasmid with OprM (P109C). As to the kind of experiment: Drug sensitivity (MIC), OprM (P109C). The settings on record: for MIC: Pseudomonas aeruginosa, OprM (P109C). The protocol:
as §1, §2

Assay [8] deals with Pseudomonas aeruginosa lacking OprM, plasmid with OprM (P100C). In words: Drug sensitivity (MIC), OprM (P100C). As for the experimental part: as §1, §2
For assay [9], the system named is Pseudomonas aeruginosa lacking OprM, plasmid with OprM (L316C). As to the kind of experiment: Drug sensitivity (MIC), OprM (L316C). As for the experimental part: as §1, §2
Assay [10] has as its system Pseudomonas aeruginosa lacking OprM, plasmid with OprM (A319C). As to the kind of experiment: Drug sensitivity (MIC), OprM (A319C). The protocol:
as §1, §2

Assay [11] deals with Pseudomonas aeruginosa lacking OprM, plasmid with OprM (R311C). As to the kind of experiment: Drug sensitivity (MIC), OprM (R311C). The settings on record: for resistance of the bacteria to the drug (in words): OprM (311C) mutant vs wild type; for MIC: Pseudomonas aeruginosa, OprM (R311C). The protocol: as §1, §2
Assay [12] concerns Pseudomonas aeruginosa lacking OprM, plasmid with OprM (D102C). As to the kind of experiment: Drug sensitivity (MIC), OprM (D102C). As for the experimental part:
as §1, §2

The test system of assay [13] is Pseudomonas aeruginosa lacking OprM, plasmid with OprM (G320C). As to the kind of experiment: Drug sensitivity (MIC), OprM (G320C). The protocol:
as §1, §2

Assay [14] concerns Pseudomonas aeruginosa lacking OprM, plasmid with OprM (Q312C). In words: Drug sensitivity (MIC), OprM (Q312C). The protocol:
as §1, §2

Assay [15] concerns Pseudomonas aeruginosa lacking OprM, plasmid with OprM (S104C). As to the kind of experiment: Drug sensitivity (MIC), OprM (S104C). As for the experimental part:
as §1, §2

For assay [16], the system named is Pseudomonas aeruginosa lacking OprM, plasmid with OprM (T105C). As to the kind of experiment: Drug sensitivity (MIC), OprM (T105C). The protocol:
as §1, §2

In assay [17] the test system is Pseudomonas aeruginosa lacking OprM, plasmid with OprM (G101C). In words: Drug sensitivity (MIC), OprM (G101C). The protocol: as §1, §2
Assay [18] relates to Pseudomonas aeruginosa lacking OprM, plasmid with OprM (S108C). As to the kind of experiment: Drug sensitivity (MIC), OprM (S108C). As for the experimental part: as §1, §2
The subject of assay [19] is Pseudomonas aeruginosa lacking OprM, plasmid with OprM (G315C). In words: Drug sensitivity (MIC), OprM (G315C). As for the experimental part: as §1, §2
Assay [20] concerns Pseudomonas aeruginosa lacking OprM, plasmid with OprM (L313C). As to the kind of experiment: Drug sensitivity (MIC), OprM (L313C). As for the experimental part:
as §1, §2

Assay [21] concerns Pseudomonas aeruginosa lacking OprM, plasmid with OprM (G107C). In words: Drug sensitivity (MIC), OprM (G107C). As for the experimental part: as §1, §2

Usually MIC stands for the smallest concentration in the dilution series that meets the test's criterion for growth inhibition. As to `C[C@H]1[C@H](NC(=O)/C(=N\OC(C)(C)C(=O)O)c2csc(N)n2)C(=O)N1S(=O)(=O)O` [AZT, aztreonam], the MIC in assay [1] (read-out: MIC for AZT) was 3.13 µg/mL (≈ 7.19 µM); in assay [2] (read-out: MIC for AZT), 3.13 µg/mL (≈ 7.19 µM); in assay [3] (read-out: MIC for AZT), 0.39 µg/mL (≈ 0.896 µM); in assay [4] (read-out: MIC for AZT), 1.54 µg/mL (≈ 3.54 µM); in [5] (read-out: MIC for AZT), 3.13 µg/mL (≈ 7.19 µM); in assay [6] (read-out: MIC for AZT), 3.13 µg/mL (≈ 7.19 µM). Further, the MIC is 3.13 µg/mL (≈ 7.19 µM) in assay [7] (read-out: MIC for AZT); 3.13 µg/mL (≈ 7.19 µM) in [8] (read-out: MIC for AZT); 3.13 µg/mL (≈ 7.19 µM) in assay [9] (read-out: MIC for AZT); 1.54 µg/mL (≈ 3.54 µM) in assay [10] (read-out: MIC for AZT); 0.39 µg/mL (≈ 0.896 µM) in assay [11] (read-out: MIC for AZT); 3.13 µg/mL (≈ 7.19 µM) in [12] (read-out: MIC for AZT). Also, the minimum inhibitory concentration (MIC) came out at 1.54 µg/mL (≈ 3.54 µM) in assay [13] (read-out: MIC for AZT); 0.78 µg/mL (≈ 1.79 µM) in [14] (read-out: MIC for AZT); 3.13 µg/mL (≈ 7.19 µM) in [15] (read-out: MIC for AZT); 3.13 µg/mL (≈ 7.19 µM) in assay [16] (read-out: MIC for AZT); 3.13 µg/mL (≈ 7.19 µM) in assay [17] (read-out: MIC for AZT); 3.13 µg/mL (≈ 7.19 µM) in assay [18] (read-out: MIC for AZT). In addition, the MIC in [19] (read-out: MIC for AZT) is 0.78 µg/mL (≈ 1.79 µM); in assay [20] (read-out: MIC for AZT), 3.13 µg/mL (≈ 7.19 µM); in assay [21] (read-out: MIC for AZT), 3.13 µg/mL (≈ 7.19 µM). For the same compound, the “resistance of the bacteria to the drug (in words)” value in assay [3] and in assay [11] was “markedly reduced resistance” each time.

On to `CCn1cc(C(=O)O)c(=O)c2ccc(C)nc21` [NA, nalidixic acid], for which the MIC is 50 µg/mL (≈ 215 µM) in assay [1] (read-out: MIC for NA); 50 µg/mL (≈ 215 µM) in assay [2] (read-out: MIC for NA); 25 µg/mL (≈ 108 µM) in assay [3] (read-out: MIC for NA); 50 µg/mL (≈ 215 µM) in assay [4] (read-out: MIC for NA); 50 µg/mL (≈ 215 µM) in assay [5] (read-out: MIC for NA); 50 µg/mL (≈ 215 µM) in [6] (read-out: MIC for NA). The MIC is 3.13 µg/mL (≈ 13.5 µM) in assay [7] (read-out: MIC for NA); 50 µg/mL (≈ 215 µM) in assay [8] (read-out: MIC for NA); 50 µg/mL (≈ 215 µM) in assay [9] (read-out: MIC for NA); 50 µg/mL (≈ 215 µM) in assay [10] (read-out: MIC for NA); 6.25 µg/mL (≈ 26.9 µM) in assay [11] (read-out: MIC for NA); 50 µg/mL (≈ 215 µM) in [12] (read-out: MIC for NA). Moreover, the minimum inhibitory concentration (MIC) was determined as 50 µg/mL (≈ 215 µM) in assay [13] (read-out: MIC for NA); 25 µg/mL (≈ 108 µM) in assay [14] (read-out: MIC for NA); 50 µg/mL (≈ 215 µM) in [15] (read-out: MIC for NA); 50 µg/mL (≈ 215 µM) in assay [16] (read-out: MIC for NA); 50 µg/mL (≈ 215 µM) in [17] (read-out: MIC for NA); 50 µg/mL (≈ 215 µM) in [18] (read-out: MIC for NA). Moreover, the minimal inhibitory concentration (MIC) in assay [19] (read-out: MIC for NA) came out at 25 µg/mL (≈ 108 µM); in assay [20] (read-out: MIC for NA), 50 µg/mL (≈ 215 µM); in assay [21] (read-out: MIC for NA), 50 µg/mL (≈ 215 µM). In addition, the “resistance of the bacteria to the drug (in words)” value is on record as “did not reduce resistance” in assay [3] and “markedly reduced resistance” in assay [11]. Further, the “drug sensitivity of the bacteria (in words)” value in [7] (OprM (P109C) mutant vs wild type) was “enhanced drug sensitivity”.
